From patent US8143254B2, “Methods for modulating ion channels” (Cornell Research Foundation, Inc., priority 2005, dated 2012) come the findings set out here.

Read-outs that look alike come from different tables or passages of the source.

This experiment has as its target T1, MiRP2-Kv2.1 (Rattus norvegicus, UniProt P15387).
T1 construct: expressed in transfected cells; host or cells: Xenopus oocytes (co-injected cRNA)
T1 sequence (P15387 1-857): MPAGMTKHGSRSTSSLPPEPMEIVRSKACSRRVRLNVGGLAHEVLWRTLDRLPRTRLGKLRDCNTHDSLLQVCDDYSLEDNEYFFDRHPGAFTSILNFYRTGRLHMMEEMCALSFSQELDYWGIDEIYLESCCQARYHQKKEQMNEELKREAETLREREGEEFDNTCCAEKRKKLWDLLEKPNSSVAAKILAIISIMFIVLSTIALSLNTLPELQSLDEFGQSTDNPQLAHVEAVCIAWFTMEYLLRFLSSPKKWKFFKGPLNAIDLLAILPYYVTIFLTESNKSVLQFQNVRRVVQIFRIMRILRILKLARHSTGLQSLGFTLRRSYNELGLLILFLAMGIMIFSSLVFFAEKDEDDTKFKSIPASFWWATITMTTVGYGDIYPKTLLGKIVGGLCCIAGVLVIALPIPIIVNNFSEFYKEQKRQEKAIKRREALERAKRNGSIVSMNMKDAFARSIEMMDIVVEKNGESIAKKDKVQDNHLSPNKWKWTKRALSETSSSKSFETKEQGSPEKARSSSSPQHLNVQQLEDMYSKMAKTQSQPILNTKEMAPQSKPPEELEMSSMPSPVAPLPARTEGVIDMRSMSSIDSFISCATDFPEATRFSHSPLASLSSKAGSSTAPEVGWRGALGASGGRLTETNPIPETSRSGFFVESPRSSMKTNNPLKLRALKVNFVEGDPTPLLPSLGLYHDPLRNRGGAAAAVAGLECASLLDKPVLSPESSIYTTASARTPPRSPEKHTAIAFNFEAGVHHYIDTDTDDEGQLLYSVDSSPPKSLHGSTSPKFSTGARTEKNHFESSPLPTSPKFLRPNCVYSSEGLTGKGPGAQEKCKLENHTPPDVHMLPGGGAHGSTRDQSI
T1 sequence (Q9Y6H6 1-103 partner): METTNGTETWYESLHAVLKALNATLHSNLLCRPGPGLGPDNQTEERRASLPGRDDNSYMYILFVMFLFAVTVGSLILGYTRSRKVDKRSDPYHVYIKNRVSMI
Nature of the experiment: TEVC of Xenopus oocytes co-injected with Kv2.1 and MiRP2 cRNA. The settings on record: for p (Hill slope) of logistic dose-response fit: MiRP2-Kv2.1; for effect of MiRP2 on sensitivity of Kv2.1 to the compound: MiRP2-Kv2.1 versus Kv2.1 alone. Type of experiment: cell-based. Here is the method: Stage V-VI Xenopus oocytes are separated into small groups using forceps, defolliculated by agitation in Ca^2+-free Ringer solution containing collagenase for one hour, washed, then stored at 15° C. in full Ringers solution before injection. cRNA sufficient to give 1-10 μA of current at physiological voltages for each channel type is injected into Xenopus oocytes (selected by appearance for overall health and uniformity of color) using a Sutter manual injector (typically 0.1-5 ng cRNA in a volume of 25-50 nl). The oocytes are then stored for 1-3 days at 15° C. before TEVC recording. Beta subunit cRNA is co-injected as appropriate, typically 2 ng per oocyte.
Whole cell oocyte experiments are performed using a Warner OC-725C amplifier and pClamp9 software with oocytes bathed in a small-volume Warner oocyte bath and viewed with a Fisher dissection microscope. Bath solution for whole cell oocyte recordings, e.g., for potassium channel analysis, is generally (in mM): 96 NaCl, 4 KCl, 1 MgCl2, 0.3 CaCl2, 10 HEPES (Ph 7.4); whole-cell oocyte TEVC pipettes are filled with 3 M KCl. Oocyte patches are studies using an Axon Instruments small-volume bath, viewed with an Olympus IX50 inverted microscope, and recordings made using an Axon Multiclamp 700 A Amplifier and pCLAMP9 software (Axon Instruments). Extracellular solution, e.g., for potassium channel analysis, is generally (in mM): 135 NaCl, 5 KCl, 1.2 MgCl2, 5 HEPES, 2.5 CaCl2, 10 D-glucose (Ph 7.4). Intracellular solution, e.g., for potassium channel analysis, is generally (in mM): 10 NaCl, 117 KCl, 2 MgCl2, 11 HEPES, 11 EGTA, ICaCl2 (Ph 7.2). Patch pipettes are approximately 3-5 MΩ resistance when filled with recording solution.
Quantitative aspects of ion action on ion channels are compared using standard pulse protocols. Pulse times and voltages will vary according to which currents are being studied. I/V and G/V curves are typically fit to a standard Boltzmann function: 1/{1+exp[(V1/2−V)/Vs]}, where V1/2 is the half-maximal voltage of activation and Vs the slope factor, for quantification and comparison. Kinetics of drug effects upon wash-in are generally fit with single or multiple exponential functions and values for τ and amplitude reported. Drug inhibition constants are calculated after generating a dose response curve by fitting with a logistic dose-response function (see equation (i) below). Typically, 5-20 cells per group are recorded from for heterologous expression experiments. Values are to be stated as mean±SEM with statistical significance set at p<0.05 (unpaired students t-test, ANOVA or the Mann-Whitney Rank Sum Test as appropriate).
Injected oocytes, bathed in bath solution containing 4 mM KCl, unless otherwise stated, are impaled with current and voltage electrodes and clamped at −80 mV holding potential using a Warner OC-725C amplifier. For single-voltage dose-response assessment, currents are recorded for several pulses (each of 1-5 s at a frequency of 0.1 Hz depending upon channel type) in the absence of drug, until equilibrium current level is reached, and then during further pulses with bath application of various concentrations of drug, each until equilibrium current inhibition is observed, with a washout phase in between to eliminate the possibility of channel run-down and other non-drug effects. […] Drug concentrations are chosen to ensure inhibition values between 0 and 90-100% with at least 3 values within the linear portion of the curve so that the inhibition constant (Ki) can be calculated accurately by fitting with a logistic dose-response function (formula (i)) using the Origin 6.1 graph package.
We explored blocking effects on Kv2.1 with and without the MiRP2 ancillary subunit. Kv2.1 can co-assemble with MiRP2 in rat brain. The sensitivities of two diammonium compounds (JE188 and TA279) were analyzed by functional expression in Xenopus oocytes using two-electrode voltage clamp (TEVC), and bath application of the compounds at various concentrations. […]

In the case of `CCCCCCCCCCCCCCCC[N+]12CCN(CC1)CC2` [TA279, 1-aza-4-azonia-4-hexadecylbicyclo[2.2.2]octane], the IC50 turned out to be 1.3 ± 0.4 µM, the “p (Hill slope) of logistic dose-response fit” value came to 0.8±0.2 and the “effect of MiRP2 on sensitivity of Kv2.1 to the compound” value is reported as “did not significantly alter inhibition”.

Turning to `CCCCCCCCCCCC[N+]12CCN(CC1)CC2` [JE188, 1-aza-4-azonia-4-dodecylbicyclo[2.2.2]octane], the “p (Hill slope) of logistic dose-response fit” value was 1.6±0.2 and the “effect of MiRP2 on sensitivity of Kv2.1 to the compound” value is listed as “two-fold decrease in sensitivity”. For the setting “MiRP2-Kv2.1, external bath application, read-out: x0 of logistic dose-response fit of current inhibition (converted)”, the IC50 was 49.2 ± 8.2 µM.
